# Data reported in US11680086B2, “Lipopeptide for potently inhibiting HIV, derivative thereof, pharmaceutical composition thereof and use thereof” (Institute of Pathogen Biology, Chinese Academy of Medical …, priority 2017, dated 2023).
# Peptide text beside a SMILES is read from it. * marks the point of attachment. Palmitoyl = CCCCCCCCCCCCCCCC(=O)*
# Tests used:
# [1] = system: SIV pseudoviruses SIVpbj and SIV239; experiment: inhibition of SIV pseudoviruses; assay type: cell-based
# [2] = circular dichroism secondary structure analysis of the inhibitors themselves; assay type: physicochemical; conditions: 10 μM, 20 μM and 40 μM in PBS
# [3] = system: NL4-3 pseudovirus carrying T-20 resistance mutation site of NHR; experiment: inhibition of T-20 resistant strains; assay type: cell-based, HIV-1; conditions: strains with single or double mutations
# [4] = system: HIV-2 strain ROD (infectious); experiment: inhibition of HIV-2; assay type: cell-based; conditions: HIV-2 ROD
# [5] = system: HIV-1; conditions: cell fusion, entry and replication; compared with parent or control peptide
# Description: HIV-1 pseudovirus-mediated cell entry inhibition assay: basic steps included: (1) Preparation of HIV-1 pseudovirus: the 293T cells were co-transfected with a plasmid expressing the envelope protein (Env) of HIV-1 strain NL4-3 (i.e., a recombinant expression plasmid obtained by inserting the gene encoding the envelope protein (ENV) of the D36G mutant of the HIV-1 strain NL4-3 in the Table 2 of the Reference 14 listed in the Background Art into the vector pcDNA3.1(−)) and the HIV-1 backbone plasmid pSG3Δenv (provided by the AIDS Reagent Program of National Institutes of Health (NIH), catalog number: 11051) by using a cell transfection reagent, incubated in a cell incubator of 37° C. and 5% CO2 for 6 hours, and then the medium was changed, and the cells were further incubated for 48 hours. The cell culture supernatant containing pseudovirus particles was pipetted and filtered with a 0.45 μm filter to collect the supernatant, then 20% fetal bovine serum (FBS) was added thereto, the final solution was transferred to a polypropylene tube, and stored at −80° C. for ready for use or directly subjected to virus titration. (2) Titration of HIV-1 pseudovirus: the viruses were diluted by 5 folds in a 96-well plate, and 4 replicate wells with 8 gradients were set to a final volume of 100 microliters. The TZM-b1 cells were trypsinized and counted, and the cells were diluted to 1×10^5 cells/ml with DMEM complete medium; 100 μl of cells dilution (containing 15 μg/ml DEAE-dextran) per well were added and cultured at 37° C. and 5% CO2 for 48 hours. The 96-well plate was then taken from the cell culture incubator. The supernatant was discarded from the wells. To each well, 30 μl of a cell lysate was added, and after 10 minutes, 100 μl of a luciferase detection reagent was added. 100 μl of liquid was pipetted from each well and added to a corresponding 96-well white plate, and the luminescence values were read by a microplate photometer. The virus titer was calculated by the Reed-Muench method. […]
smiles,measurement,setting,value
CCCCCCCCCCCCCCCC(=O)NCCCC[C@H](NC(=O)[C@H](CCC(=O)O)NC(=O)[C@H](CC(C)C)NC(=O)[C@H](CCCCN)NC(=O)[C@H](CCCCN)NC(=O)[C@H](CC(C)C)NC(=O)[C@H](CCC(=O)O)NC(=O)[C@H](CCC(=O)O)NC(=O)[C@H](CCC(=O)O)NC(=O)[C@H](CC(N)=O)NC(=O)[C@H](CCCCN)NC(=O)[C@H](CCCCN)NC(=O)[C@H](CCC(N)=O)NC(=O)[C@H](CCC(N)=O)NC(=O)[C@H](CCC(=O)O)NC(=O)[C@H](CCC(=O)O)NC(=O)[C@H](C)NC(=O)[C@H](CCCCN)NC(=O)[C@H](CCCCN)NC(=O)[C@H](CC(C)C)NC(=O)[C@H](CC(C)C)NC(=O)[C@H](CCC(=O)O)NC(=O)[C@H](CCC(=O)O)NC(=O)[C@@H](NC(=O)[C@H](CC(N)=O)NC(=O)[C@H](C)NC(=O)[C@H](CCC(=O)O)NC(=O)[C@H](CC(C)C)NC(C)=O)[C@@H](C)CC)C(N)=O [LP-51] (Ac-LEANIEELLKKAEEQQKKNEEELKKLEK(Palmitoyl)-NH2),inhibitory activity against SIV (in words),[1],extremely potent inhibitory activity
same,secondary structure of the inhibitor itself (in words),[2],distinct helical structure
same,inhibitory activity against T-20 resistant strains (in words),[3],thousands to tens of thousands of times better than that of the LP-40
same,inhibitory activity against HIV-2 (in words),[4],extremely potent inhibitory activity
same,antiviral activity (in words),[5],comparable to that of the LP-50
